Measured values published in patent US20040106216A1, “Method of measuring drug-metabolizing enzyme activity, method of evaluating inhibition of drug-metabolizing enzyme activity, and composition for these methods” (Toyo Boseki Kabushiki Kaisha, priority 2002, published 2004).
Where a chain is given by its changes, count along the chain named.

Assays:
[1] = target: human cytochrome P450 CYP2C9 (359Ile) (Homo sapiens, UniProt P11712)
Experimental: (§1) Purified anti-fluorescein antibodies obtained using as the antigen a protein cross-linked using the X position of fluorescein were diluted with 50 mM carbonic acid buffer (pH 9.6) to a concentration of 1 μg/ml (antibody adsorption liquid), and 100 μL per well was poured into Corning Costar microtiter plates (polystyrene 96-well type). The surfaces were then sealed, and the plates left overnight at 4° C. The following day the antibody adsorption liquid was removed, and each well washed 3 times with 200 μL of 10 mM phosphoric acid buffer (pH 7.2, containing 150 mM NaCl). After washing, using 10 mM phosphoric acid buffer (pH 7.2, containing 150 mM NaCl: phosphoric acid buffer 1) as the base, each well was filled with 200 μL of a blocking solution containing 0.2% casein and 10% sucrose. After being filled with the blocking liquid the plates were left overnight at 4° C., and the following day the blocking liquid was removed and vacuum drying applied for 16 hours. The vacuum-dried plates were sealed in storage bags under reduced pressure, and stored at 4° C. prior to the following measurements.
(§2) A system expressing human cytochrome P450 CYP2C9 was constructed according to the methods of Goldstein et al (Goldstein J. A. et al, Biochemistry Vol. 33 pp 1743-1752 (1994)). A single nucleotide mutation (A→C) replacing isoleucine at 359 position with leucine was then introduced by ordinary methods. Two types of enzyme preparations, human cytochrome P450 CYP2C9 (359Ile) and (359Leu), were prepared by methods described in the literature and used in the following experiment.
(§3) The two human cytochrome P450 CYP2C9 preparations were diluted with 100 mM phosphoric acid buffer (pH 7.2, containing 0.1% BSA: phosphoric acid buffer 2), and concentrations sequences prepared. […]

[2] = target: human cytochrome P450 CYP2C9 (359Leu) (Homo sapiens, UniProt P11712, I359L); settings: 30 μM dibenzylfluorescein; 0-1.2 μM final concentration; FIG. 20
human cytochrome P450 CYP2C9 (359Leu), sequence (P11712 whole entry I359L): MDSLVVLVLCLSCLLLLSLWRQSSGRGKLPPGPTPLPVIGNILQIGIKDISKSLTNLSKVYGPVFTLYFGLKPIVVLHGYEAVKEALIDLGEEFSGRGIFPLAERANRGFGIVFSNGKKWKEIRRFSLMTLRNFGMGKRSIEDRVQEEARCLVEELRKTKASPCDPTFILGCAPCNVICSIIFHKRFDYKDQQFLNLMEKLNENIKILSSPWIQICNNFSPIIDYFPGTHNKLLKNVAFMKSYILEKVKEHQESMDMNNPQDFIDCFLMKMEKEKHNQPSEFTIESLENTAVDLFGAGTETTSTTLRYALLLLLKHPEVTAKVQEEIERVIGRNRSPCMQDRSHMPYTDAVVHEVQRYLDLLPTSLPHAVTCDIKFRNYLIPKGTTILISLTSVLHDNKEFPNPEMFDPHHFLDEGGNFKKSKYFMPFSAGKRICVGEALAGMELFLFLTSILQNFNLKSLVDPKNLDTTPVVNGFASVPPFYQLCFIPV
Experimental: as §1, §2, §3

[3] = test system: Pseudomonas-derived 17β-hydroxysteroid dehydrogenase; test: Inhibition of 17β-hydroxysteroid dehydrogenase, estrone substrate, estradiol enzyme immunoassay; type: biochemical; settings: 0-20 μM final concentration, FIG. 8
[4] = target: T1, pig cytochrome P450 CYP19 (133Ile) (Sus scrofa, UniProt P79430); test: Inhibition of pig cytochrome P450 CYP19 (133Ile), testosterone substrate, estradiol enzyme immunoassay; type: biochemical
T1 construct: made in house
T1 sequence (P79430 1-503): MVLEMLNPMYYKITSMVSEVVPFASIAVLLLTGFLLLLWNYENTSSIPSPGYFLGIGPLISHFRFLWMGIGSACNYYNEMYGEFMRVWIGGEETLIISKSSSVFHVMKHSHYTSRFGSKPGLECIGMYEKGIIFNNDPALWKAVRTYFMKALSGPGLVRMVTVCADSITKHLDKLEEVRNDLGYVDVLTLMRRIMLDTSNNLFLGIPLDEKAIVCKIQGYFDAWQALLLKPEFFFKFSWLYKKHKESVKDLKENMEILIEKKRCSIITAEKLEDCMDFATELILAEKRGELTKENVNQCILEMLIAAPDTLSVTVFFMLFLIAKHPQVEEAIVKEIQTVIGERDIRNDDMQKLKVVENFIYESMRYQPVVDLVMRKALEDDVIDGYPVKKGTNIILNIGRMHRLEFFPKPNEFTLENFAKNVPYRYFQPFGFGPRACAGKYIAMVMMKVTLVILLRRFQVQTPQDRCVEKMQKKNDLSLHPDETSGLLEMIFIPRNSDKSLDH
Experimental: as §1, with “Purified anti-estradiol” for “Purified anti-fluorescein”, “the 3rd” for “the X”, “of estradiol” for “of fluorescein”, “diluted in” for “diluted with”, “10% saccharose.” for “10% sucrose.”
(§4) A placental system expressing pig cytochrome P450 CYP19 was prepared according to the methods described in Mol. Endocrinol. Vol. 16, pp 1456-1468 (2002), and a mutation introduced replacing isoleucine 133 with methionine or alanine according to ordinary methods. […]

[5] = target: T2, human cytochrome P450 CYP19 (Homo sapiens, UniProt P11511); test: Inhibition of human cytochrome P450 CYP19 (aromatase), testosterone substrate, estradiol enzyme immunoassay; type: biochemical; settings: 62.5 μM testosterone, 20 minutes at 37° C.; α-naphthoflavone 0-3.2 μM, aminoglutethimide 0-9 μM final concentration; FIG. 6, 7
T2 construct: purchased BD Science (Gentest)
T2 sequence (P11511 1-503): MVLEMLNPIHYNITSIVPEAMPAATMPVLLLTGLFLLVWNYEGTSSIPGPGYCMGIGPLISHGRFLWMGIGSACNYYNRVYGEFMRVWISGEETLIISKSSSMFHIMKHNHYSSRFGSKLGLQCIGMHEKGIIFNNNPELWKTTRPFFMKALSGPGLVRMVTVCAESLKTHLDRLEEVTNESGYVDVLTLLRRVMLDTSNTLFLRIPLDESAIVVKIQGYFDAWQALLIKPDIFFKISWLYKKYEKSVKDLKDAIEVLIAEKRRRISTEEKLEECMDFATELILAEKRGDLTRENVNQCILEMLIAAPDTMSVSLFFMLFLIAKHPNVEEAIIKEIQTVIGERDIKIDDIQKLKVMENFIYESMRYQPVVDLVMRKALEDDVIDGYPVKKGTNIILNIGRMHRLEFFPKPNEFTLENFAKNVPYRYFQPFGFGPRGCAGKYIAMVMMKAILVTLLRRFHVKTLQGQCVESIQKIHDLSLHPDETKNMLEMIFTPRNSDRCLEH
Experimental: as §1, with “The” for “Purified anti-fluorescein antibodies obtained using as the antigen a protein cross-linked using the X position of fluorescein were diluted with 50 mM carbonic acid buffer (pH 9.6) to a concentration of 1 μg/ml (antibody adsorption liquid), and 100 μL per well was poured into Corning Costar microtiter plates (polystyrene 96-well type). The”

[6] = target: T3, pig cytochrome P450 CYP19 (133Met) (Sus scrofa, UniProt P79430, I133M); test: Inhibition of pig cytochrome P450 CYP19 (133Met), testosterone substrate, estradiol enzyme immunoassay; type: biochemical; settings: 62.5 μM testosterone; 0-3.2 μM final concentration; FIG. 16
T3 construct: made in house
T3 sequence (P79430 1-503 I133M): T1 sequence (P79430 1-503) with I133M
Experimental: as §1, with “Purified anti-estradiol” for “Purified anti-fluorescein”, “the 3rd” for “the X”, “of estradiol” for “of fluorescein”, “diluted in” for “diluted with”, “10% saccharose.” for “10% sucrose.”
as §4

human cytochrome P450 CYP2C9 (359Ile), sequence (P11712 whole entry): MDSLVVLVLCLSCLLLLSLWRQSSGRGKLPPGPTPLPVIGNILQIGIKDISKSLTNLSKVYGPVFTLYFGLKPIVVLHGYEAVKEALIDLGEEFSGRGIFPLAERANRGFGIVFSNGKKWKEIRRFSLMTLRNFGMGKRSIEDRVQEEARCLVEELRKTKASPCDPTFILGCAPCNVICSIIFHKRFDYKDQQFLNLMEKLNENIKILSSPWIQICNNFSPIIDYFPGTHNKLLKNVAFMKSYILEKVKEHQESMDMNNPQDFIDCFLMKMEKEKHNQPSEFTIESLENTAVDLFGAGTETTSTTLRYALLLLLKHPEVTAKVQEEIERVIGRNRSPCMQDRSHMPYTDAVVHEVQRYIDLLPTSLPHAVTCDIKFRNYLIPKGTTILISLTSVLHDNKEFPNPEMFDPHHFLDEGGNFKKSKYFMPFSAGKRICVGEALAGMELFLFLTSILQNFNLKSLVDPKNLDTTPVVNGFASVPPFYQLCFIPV

For `Nc1ccc(S(=O)(=O)Nc2ccnn2-c2ccccc2)cc1` [sulfaphenazole], the “inhibition of human cytochrome P450 CYP2C9 (359Ile) (concentration vs absorbance at 450 nm)” value ([1]; 30 μM dibenzylfluorescein, 0-1.2 μM final concentration, FIG. 19) was “the greater the inhibition of the two types of human cytochrome P450 CYP2C9”, the “difference between inhibition-dose curves of the two enzyme preparations” value ([1]; human CYP2C9 (359Ile) versus (359Leu), FIGS. 19 and 20) was “obvious differences between the sulfaphenazole inhibition-dose curves” and the “inhibition of human cytochrome P450 CYP2C9 (359Leu) (concentration vs absorbance at 450 nm)” value [2] was “the greater the inhibition of the two types of human cytochrome P450 CYP2C9”.

With `O=c1c(-c2ccc(O)cc2)coc2cc(O)cc(O)c12` [genistein] the “inhibition of 17β-hydroxysteroid dehydrogenase (relationship between solution concentration and absorbance at 450 nm)” value [3] was “the stronger the inhibition of 17β-hydroxysteroid dehydrogenase”.

For `O=c1cc(-c2ccccc2)oc2c1ccc1ccccc12` [α-naphthoflavone], the “inhibition of pig cytochrome P450 CYP19 (133Ile) (concentration vs absorbance at 450 nm)” value ([4]; 62.5 μM testosterone, 0-3.2 μM final concentration, FIG. 15) was “the greater the inhibition of pig cytochrome P450 CYP19”, the “difference in degree of inhibition between preparation (133Ile) and preparation (133Met)” value ([4]; pig CYP19 (133Ile) versus (133Met), FIGS. 15 and 16) was “the degree of inhibition differed greatly” and the “inhibition of cytochrome P450 CYP19 (relationship between solution concentration and absorbance at 450 nm)” value [5] was “the greater the inhibition of cytochrome P450 CYP19”. The “inhibition of pig cytochrome P450 CYP19 (133Met) (concentration vs absorbance at 450 nm)” value [6] was “the greater the inhibition of pig cytochrome P450 CYP19”.
